Measurements taken from patent US7442501B2, “SQV nucleic acids and polypeptides” (Massachusetts Institute of Technology, priority 2002, dated 2008).
Substitutions are numbered along the chain they refer to.

T1: chicken UDP-glucose dehydrogenase (Gallus gallus, UniProt Q5F3T9)
T1 sequence (Q5F3T9 1-494): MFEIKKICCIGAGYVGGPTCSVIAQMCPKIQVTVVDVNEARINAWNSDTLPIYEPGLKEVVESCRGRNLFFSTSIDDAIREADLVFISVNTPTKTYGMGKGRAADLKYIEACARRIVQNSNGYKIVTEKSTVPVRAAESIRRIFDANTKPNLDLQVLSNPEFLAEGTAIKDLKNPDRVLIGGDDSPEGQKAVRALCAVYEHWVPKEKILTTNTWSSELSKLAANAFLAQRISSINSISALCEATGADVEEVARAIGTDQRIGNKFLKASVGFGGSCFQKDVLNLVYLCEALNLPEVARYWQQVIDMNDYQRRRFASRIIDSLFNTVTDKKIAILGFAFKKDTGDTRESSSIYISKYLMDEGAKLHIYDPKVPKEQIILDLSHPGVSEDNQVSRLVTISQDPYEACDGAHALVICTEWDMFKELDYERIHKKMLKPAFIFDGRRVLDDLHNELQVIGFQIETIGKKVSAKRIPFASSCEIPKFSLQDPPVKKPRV

B1: SQV-4 protein that contained a histidine for arginine substitution at amino acid position 353: bacterially expressed mutant SQV-4 corresponding to the sqv-4 mutant allele n2827 (protein, UniProt Q19905 1-481, looked up, variant R353H)
UDP-glucose 6-dehydrogenase: MTDQVFGKVSKVVCVGAGYVGGPTCAMIAHKCPHITVTVVDMNTAKIAEWNSDKLPIYEPGLDEIVFAARGRNLFFSSDIPKAIAEADLIFISVNTPTKMYGRGKGMAPDLKYVESVSRTIAQYAGGPKIVVEKSTVPVKAAESIGCILREAQKNNENLKFQVLSNPEFLAEGTAMKDLANPDRVLIGGESSPEGLQAVAELVRIYENWVPRNRIITTNTWSSELSKLVANAFLAQRISSINSISAVCEATGAEISEVAHAVGYDTRIGSKFLQASVGFGGSCFQKDVLSLVYLCESLNLPQVADYWQGVININNWQRRRFADKIIAELFNTVTDKKIAIFGFAFKKNTGDTHESSAIHVIKHLMEEHAKLSVYDPKVQKSQMLNDLASVTSAQDVERLITVESDPYAAARGAHAIVVLTEWDEFVELNYSQIHNDMQHPAAIFDGRLILDQKALREIGFRTFAIGTSPDQAYNLFGTAGY
B2: wild-type SQV-4 protein: recombinant SQV-4 protein expressed in E. coli, soluble lysate fraction (protein, UniProt Q19905 1-481, looked up)
UDP-glucose 6-dehydrogenase: B1 UDP-glucose 6-dehydrogenase with H353R

Experiments:
SQV-4 [1] = molecular target: T2, SQV-4 (Caenorhabditis elegans, UniProt Q19905, T2A); format: biochemical, C. elegans; conditions: for NAD+ reduction: UDP-glucose replaced, 100 μM NAD+ and 250 μM nucleotide sugar
T2 construct: were used for PCR-amplification of the sqv-4 ORF, and the resulting product was digested with NcoI and XhoI and cloned into pET21d; made in house; host or cells: E. coli BL21 pLysS, pET21d; soluble fraction used without purification
T2 sequence (Q19905 whole entry T2A): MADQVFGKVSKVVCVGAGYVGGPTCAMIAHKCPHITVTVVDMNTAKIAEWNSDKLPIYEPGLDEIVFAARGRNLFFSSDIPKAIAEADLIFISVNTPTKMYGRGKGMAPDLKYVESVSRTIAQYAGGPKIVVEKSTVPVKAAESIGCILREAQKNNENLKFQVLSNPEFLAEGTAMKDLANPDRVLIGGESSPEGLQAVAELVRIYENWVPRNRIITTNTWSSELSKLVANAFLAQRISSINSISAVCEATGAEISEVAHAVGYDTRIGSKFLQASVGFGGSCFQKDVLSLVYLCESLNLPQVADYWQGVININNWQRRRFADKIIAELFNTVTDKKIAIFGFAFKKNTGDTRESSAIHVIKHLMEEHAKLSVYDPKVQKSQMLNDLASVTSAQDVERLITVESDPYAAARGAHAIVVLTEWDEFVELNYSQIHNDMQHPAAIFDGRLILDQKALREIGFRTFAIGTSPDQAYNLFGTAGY
Description: (§1) The sqv-4 coding sequences corresponding to the wild-type, n2827, and n2840 alleles were cloned into the pET21d E. coli expression vector and transformed into BL21 pLysS. The oligonucleotides 5′-[…]-3′ (SEQ ID NO:53) and 5′-[…]-3′ (SEQ ID NO:54) were used to generate R353H n2827 and T4101 n2840 mutations, respectively, by site-directed mutagenesis. The oligonucleotides 5′-[…]-3′ (SEQ ID NO:55) and 5′-[…]-3′ (SEQ ID NO:56) were used for PCR-amplification of the sqv-4 ORF, and the resulting product was digested with NcoI and XhoI and cloned into pET21d. All three proteins have a threonine to alanine mutation in the second amino acid because of the addition of an NcoI site at the 5′ end. SQV-4 expression was induced by incubation with 1 mM IPTG for three to four hours at 37° C. E. coli were pelleted and resuspended in 50 mM Tris-HCl pH 7.5, 1 mM DTT, 1 mM EDTA, 1 mM PMSF, 2 μg/ml pepstatin A, and aprotinin and lysed using a French pressure cell. The soluble fraction was separated from the insoluble inclusion bodies by centrifugation at 12,000 g for 20 minutes.
(§2) All assays were performed at room temperature (20 to 22° C.) in 50 mM Tris-HCl, 2 mM dithiothrietol (DTT), pH 8.7. The initial velocity of the reaction was determined from time points during the first 60 seconds after addition of the SQV-4 extract.

[2] = molecular target: T3, Protein A-SQV-2 fusion protein (Caenorhabditis elegans, UniProt Q9N491); test: Galactosyltransferase II assay, acceptor substrate specificity; format: biochemical, C. elegans; conditions: for Enzyme Activity: acceptor 5 mM, donor UDP-[3H]galactose; for acceptor for glycosylation by SQV-2: UDP-[3H]galactose with various acceptor substrates
T3 construct: protein A (modified, secreted); made in house; host or cells: COS7 cells, transient transfection; purified from culture supernatant on IgG-agarose
T3 sequence (Q9N491 25-330): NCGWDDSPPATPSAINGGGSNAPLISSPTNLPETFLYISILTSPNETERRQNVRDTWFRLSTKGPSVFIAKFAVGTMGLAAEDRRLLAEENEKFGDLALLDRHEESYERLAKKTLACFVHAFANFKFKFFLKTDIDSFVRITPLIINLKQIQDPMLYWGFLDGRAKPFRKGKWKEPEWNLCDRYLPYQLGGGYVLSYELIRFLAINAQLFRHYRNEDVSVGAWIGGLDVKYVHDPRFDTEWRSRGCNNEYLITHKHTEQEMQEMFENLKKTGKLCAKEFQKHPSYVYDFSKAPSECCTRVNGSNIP
Description: We assayed a recombinant Protein A-SQV-2 fusion protein expressed in COS7 cells for galactosyltransferase II activity.
Galactosyltransferase activity was assayed in vitro using UDP-[^3H]galactose together with various acceptor substrates.
A sqv-2 coding sequence encoding amino acids 25 to 330 of SQV-2, thus lacking the transmembrane domain at the amino terminus, was cloned into pDEST-CMV-protA vector as follows. The oligonucleotides 5′-[…]-3′ (SEQ ID NO:45) and 5′-[…]-3′ (SEQ ID NO:46) were used as the primers for PCR-amplification, and the resulting product was digested with EcoRI and XhoI and cloned into pENTR3C. The Gateway LR cloning reaction (Invitrogen) was used to transfer the sqv-2 ORF lacking TM into the Gateway destination vector pDEST-CMV-protA to generate a modified amino-terminal protein A fusion protein using the CMV promoter. The plasmid pDEST-CMV-protA was constructed by cloning the Gateway C.1 reading frame cassette, from the manufacturer, into pRK5F10ProteinA (Wei et al., Proc. Natl. Acad. Sci. USA 90:3885-8, 1993), which was digested with EcoRI and blunted using dNTPs, Klenow fragment and T4 DNA polymerase. This plasmid was designed to express a secreted protein A-SQV-2 (amino acids 25-330) fusion protein in mammalian cells.
COS7 cells were transiently transfected with pDEST-CMV-protA-sqv-2 using LIPOFECTAMINE (3:1 (w/w) liposome formulation of the polycationic lipid 2,3-dioleyloxy-N-[2(sperminecarboxamido)ethyl]-N,N-dimethyl-1-propanaminium trifluoroacetate (DOSPA) (Chemical Abstracts Registry name: N-[2-(2,5-bis[(3-aminopropyl)amino]-1-oxpentyl}amino)ethyl]-N,N-dimethyl-2,3-bis(9-octadecenyloxy)-1-propanaminium trifluoroacetate), and the neutral lipid dioleoyl phosphatidylethanolamine (DOPE) in membrane filtered water) (Life Technologies) in accordance with the manufacturer's instructions. […] After seventy-two hours of incubation, the fusion protein was recovered and purified from the cell culture supernatant by affinity chromatography using IgG-agarose (Wei et al., Proc. Natl. Acad. Sci. USA 90:3885-8, 1993).
Galactosyltransferase II activity was assayed using UDP-[1-^3H]Gal (NEN Life Sciences Products, 12.8 Ci/mmol) and various mono- and di-saccharide acceptor substrates, including Xylβ-O-benzyl (Bn), Xylβ-O-naphthol, Galβ-O-naphthalenemethanol (NM), GalNAcβ-O-NM, GlcNAcβ-O-NM, Galβ,14Xylβ-O-Bn, Galβ1,3GlcNAc α-O-NM, Galβ1,3Galβ-O-NM, Galβ1,4GlcNAcβ-O-NM, Galβ1,3GlcNAcβ-O-NM, GlcNAcβ1,3Galβ-O-NM, Manaα,1,6Man α-O-decenyl (Lugemwa et al., J. Biol. Chem. 271:19159-65, 1996; Sarkar et al., Carbohydr Res 329:221-33, 2000; Brown et al., Bioorg. Med. Chem. 9:815-24, 2001). […] After incubation at room temperature for 3 hours, the reaction products were diluted with 1 mL of 0.5 M NaCl and applied to a Sep-Pak C18 (100 mg; Waters). After washing with 5 ml of 0.5 M NaCl and water, the radiolabeled products were eluted with 50% methanol, dried and counted by liquid scintillation.

[3] = molecular target: Streptococcus pyogenes UDP-glucose dehydrogenase (Streptococcus pyogenes, UniProt P0C0F4); conditions: cited from earlier work
Streptococcus pyogenes UDP-glucose dehydrogenase, sequence (P0C0F4 whole entry): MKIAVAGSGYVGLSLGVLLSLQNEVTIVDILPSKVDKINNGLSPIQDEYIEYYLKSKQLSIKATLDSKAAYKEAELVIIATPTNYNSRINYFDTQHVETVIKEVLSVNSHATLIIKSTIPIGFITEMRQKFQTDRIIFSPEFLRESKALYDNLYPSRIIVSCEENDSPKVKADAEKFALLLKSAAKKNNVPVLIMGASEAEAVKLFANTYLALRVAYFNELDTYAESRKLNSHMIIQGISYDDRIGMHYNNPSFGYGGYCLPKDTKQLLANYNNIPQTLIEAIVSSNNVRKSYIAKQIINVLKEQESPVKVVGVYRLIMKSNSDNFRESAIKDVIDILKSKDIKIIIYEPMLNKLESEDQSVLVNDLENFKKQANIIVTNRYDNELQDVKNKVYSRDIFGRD

[4] = molecular target: T1, chicken UDP-glucose dehydrogenase; conditions: cited from earlier work
[5] = molecular target: UDP-glucose dehydrogenase (Escherichia coli, UniProt P76373); conditions: cited from earlier work
SQV-4 [6] = molecular target: T4, SQV-4 (Caenorhabditis elegans, UniProt Q19905, R353H/T2A); format: biochemical, C. elegans; conditions: bacterially expressed mutant protein
T4 construct: were used for PCR-amplification of the sqv-4 ORF, and the resulting product was digested with NcoI and XhoI and cloned into pET21d; made in house; host or cells: E. coli BL21 pLysS, pET21d; soluble fraction used without purification
T4 sequence (Q19905 whole entry T2A/R353H): as the sequence (Q19905 whole entry T2A) above, with R353H counted along it
Description: as §1, §2

Row | Molecule | NAD+ reduction (SQV-4 [1]) | Enzyme Activity [2] [pmol/h/mL medium] | further results
1 | Cc1cn([C@H]2C[C@H](O)[C@@H](COP(=O)(O)OP(=O)(O)O[C@H]3O[C@H](CO)[C@@H](O)[C@H](O)[C@H]3O)O2)c(=O)[nH]c1=O [TDP-glucose] | undetectable |  | 
2 | C=CCCCCCCCCO[C@H]1O[C@H](CO[C@H]2O[C@H](CO)[C@@H](O)[C@H](O)[C@@H]2O)[C@@H](O)[C@H](O)[C@@H]1O [Manα1,6Manα1-O—C10] |  | 0 | 
3 | CC(=O)N[C@H]1[C@@H](OP(=O)(O)OP(=O)(O)OC[C@H]2O[C@@H](n3ccc(=O)[nH]c3=O)[C@H](O)[C@@H]2O)O[C@H](CO)[C@@H](O)[C@@H]1O [UDP-N-acetyl-glucosamine] | undetectable |  | 
4 | CC(=O)N[C@H]1[C@H](OCc2ccccc2)O[C@H](CO)[C@H](O)[C@@H]1O [GalNAcβ1-O-Bn] |  | 0 | 
5 | Nc1ccn([C@@H]2O[C@H](COP(=O)(O)OP(=O)(O)O[C@H]3O[C@H](CO)[C@@H](O)[C@H](O)[C@H]3O)[C@@H](O)[C@H]2O)c(=O)n1 [CDP-glucose] | undetectable |  | 
6 | Nc1ncnc2c1ncn2[C@@H]1O[C@H](COP(=O)(O)OP(=O)(O)O[C@H]2O[C@H](CO)[C@@H](O)[C@H](O)[C@H]2O)[C@@H](O)[C@H]1O [ADP-glucose] | undetectable |  | 
7 | NC(=O)c1ccc[n+]([C@@H]2O[C@H](COP(=O)([O-])OP(=O)(O)OC[C@H]3O[C@@H](n4cnc5c(N)ncnc54)[C@H](O)[C@@H]3O)[C@@H](O)[C@H]2O)c1 [NAD^+] |  |  | Km (SQV-4 [1]; double-reciprocal plot of initial velocities, bacterially expressed SQV-4): 200 µM; Km [3]: 60 µM; Km [4]: 900 µM; Km [5]: 50 µM
8 | Nc1nc2c(ncn2[C@@H]2O[C@H](COP(=O)(O)OP(=O)(O)O[C@H]3O[C@H](CO)[C@@H](O)[C@H](O)[C@H]3O)[C@@H](O)[C@H]2O)c(=O)[nH]1 [GDP-glucose] | undetectable |  | 
9 | OC[C@H]1O[C@@H](O[C@@H]2CO[C@@H](OCc3ccccc3)[C@H](O)[C@H]2O)[C@H](O)[C@@H](O)[C@H]1O [Galβ1,4Xylβ1-O-Bn, galactose-(β1,4)-xylose(β1)-O-benzyl] |  | 2660 | acceptor for glycosylation by SQV-2 [2]: specifically catalyzed addition of galactose
10 | O[C@@H]1[C@@H](O)[C@H](OCc2ccccc2)OC[C@H]1O [Xylβ1-O-Bn, xylose-(β1)-O-benzyl] |  | 0 | acceptor for glycosylation by SQV-2 [2]: None of the other acceptors tested acted as an acceptor
11 | O[C@@H]1[C@@H](O)[C@H](OCc2ccc3ccccc3c2)OC[C@H]1O [Xylβ1-O-naphthol, xylose-(β1)-O-naphthalenemethanol] |  | 0 | acceptor for glycosylation by SQV-2 [2]: None of the other acceptors tested acted as an acceptor
12 | B1 |  |  | decrease in UDP-glucose dehydrogenase activity (SQV-4 [6]): greater than 20 fold
13 | B2 |  |  | UDP-glucose dehydrogenase activity increase (SQV-4 [1]; lysates vs lysates with vector alone or mutant SQV-4 protein): at least 20 fold
